From US9840513B2 (AbbVie S.à.r.l., priority 2015, dated 2017)

Target: T1, F508delCFTR cell surface expression in CFBE41o-F508delCFTR-HRP cells (Homo sapiens, UniProt P13569, DEL508-508)
T1 construct: fused on or other part: Horseradish peroxidase (HRP) reporter inserted in the fourth exofacial (extracellular) loop of CFTR; expression is doxycycline-inducible
Assay: Cell Surface Expression-Horse Radish Peroxidase (CSE-HRP) Assay
Type: cell-based
Conditions: for EC50: CFBE41o-F508delCFTR-HRP cells, 18-24 hours at 33° C., 8-point curve, highest concentration 20 μM; for Maximum % activity (%): maximum at any tested concentration, normalized to on-plate positive control (3 μM)
How it was run: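 Correctors incubated 18-24 h at 33 °C on doxycycline-induced (0.5 μg/mL, 72 h) CFBE41o-F508delCFTR-HRP cells, 3-fold series from 20 μM. After DPBS washes, luminol luminescence read; activity expressed relative to DMSO and a 3 μM positive control, EC50 fitted from triplicate plates.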

T1 sequence (P13569 with tags, fused parts or gaps DEL508-508 limits assumed): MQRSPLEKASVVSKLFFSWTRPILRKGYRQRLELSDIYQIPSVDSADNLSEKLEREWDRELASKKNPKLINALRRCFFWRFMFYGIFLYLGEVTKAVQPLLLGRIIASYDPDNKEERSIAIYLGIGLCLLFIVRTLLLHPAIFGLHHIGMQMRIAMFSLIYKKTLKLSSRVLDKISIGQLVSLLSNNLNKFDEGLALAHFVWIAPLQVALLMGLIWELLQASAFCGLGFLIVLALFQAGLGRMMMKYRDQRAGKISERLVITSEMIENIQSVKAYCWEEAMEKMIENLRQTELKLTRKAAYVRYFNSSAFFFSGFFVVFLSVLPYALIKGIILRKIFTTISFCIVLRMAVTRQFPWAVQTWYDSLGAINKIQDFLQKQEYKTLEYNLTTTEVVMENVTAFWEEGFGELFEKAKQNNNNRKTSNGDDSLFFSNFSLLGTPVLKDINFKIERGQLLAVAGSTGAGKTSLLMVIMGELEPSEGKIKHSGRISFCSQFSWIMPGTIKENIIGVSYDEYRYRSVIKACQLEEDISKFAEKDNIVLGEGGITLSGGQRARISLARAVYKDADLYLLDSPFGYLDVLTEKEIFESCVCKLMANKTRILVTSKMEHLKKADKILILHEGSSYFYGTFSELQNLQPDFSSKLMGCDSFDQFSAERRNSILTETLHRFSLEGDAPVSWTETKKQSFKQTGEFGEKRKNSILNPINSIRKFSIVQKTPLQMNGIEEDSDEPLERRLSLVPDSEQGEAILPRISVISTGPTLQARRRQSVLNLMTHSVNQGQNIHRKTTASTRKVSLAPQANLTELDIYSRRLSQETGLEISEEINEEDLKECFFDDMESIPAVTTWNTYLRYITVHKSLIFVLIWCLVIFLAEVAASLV
T1 sequence (P13569 919-1480 limits assumed, stated change not applied): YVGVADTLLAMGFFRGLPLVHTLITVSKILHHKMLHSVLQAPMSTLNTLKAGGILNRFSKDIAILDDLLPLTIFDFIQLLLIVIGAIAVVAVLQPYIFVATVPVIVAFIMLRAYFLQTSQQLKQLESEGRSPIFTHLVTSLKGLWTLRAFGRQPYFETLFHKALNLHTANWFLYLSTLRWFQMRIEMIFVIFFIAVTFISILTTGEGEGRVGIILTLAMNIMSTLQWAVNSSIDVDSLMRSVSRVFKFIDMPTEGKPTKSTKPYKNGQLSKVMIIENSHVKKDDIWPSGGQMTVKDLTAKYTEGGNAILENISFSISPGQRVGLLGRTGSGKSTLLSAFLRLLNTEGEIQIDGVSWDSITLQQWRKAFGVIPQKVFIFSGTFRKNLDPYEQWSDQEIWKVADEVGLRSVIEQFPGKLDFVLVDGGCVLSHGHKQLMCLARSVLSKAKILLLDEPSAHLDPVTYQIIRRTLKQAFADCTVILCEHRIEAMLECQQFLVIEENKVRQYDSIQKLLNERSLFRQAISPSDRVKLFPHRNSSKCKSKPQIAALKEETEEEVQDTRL

Row | SMILES | EC50 [nM] | Maximum % activity (%)
1 | COc1ccc2c(c1)O[C@@H](c1ccc(C(C)(C)O)cn1)C[C@H]2NC(=O)[C@@]1(C)COc2cc3c(cc21)OC(F)(F)O3 [Example 181, (7R)-2,2-difluoro-N-{(2R,4R)-2-[5-(2-hydroxypropan-2-yl)pyridin-2-yl]-7-methoxy-3,4-dihydro-2H-1-benzopyran-4-yl}-7-methyl-6,7-dihydro-2H-furo[2,3-f][1,3]benzodioxole-7-carboxamide] | 30 | 129
2 | C[C@]1(C(=O)N[C@@H]2C[C@H](C3CCNCC3)Oc3cc(OC(F)(F)F)ccc32)COc2cc3c(cc21)OC(F)(F)O3 [Example 182, (7R)-2,2-difluoro-7-methyl-N-[(2R,4R)-2-(piperidin-4-yl)-7-(trifluoromethoxy)-3,4-dihydro-2H-1-benzopyran-4-yl]-6,7-dihydro-2H-furo[2,3-f][1,3]benzodioxole-7-carboxamide] | 1680 | 195
3 | CC(C)(C)OC(=O)CN1CCC([C@@H]2C[C@H](NC(=O)[C@@]3(C)COc4cc5c(cc43)OC(F)(F)O5)c3ccc(OC(F)(F)F)cc3O2)CC1 [Example 183, tert-butyl {4-[(2S,4S)-4-{[(7R)-2,2-difluoro-7-methyl-6,7-dihydro-2H-furo[2,3-f][1,3]benzodioxole-7-carbonyl]amino}-7-(trifluoromethoxy)-3,4-dihydro-2H-1-benzopyran-2-yl]piperidin-1-yl}acetate] | 2220 | 60
4 | C[C@]1(C(=O)N[C@H]2C[C@@H](C3CCN(CC(=O)O)CC3)Oc3cc(OC(F)(F)F)ccc32)COc2cc3c(cc21)OC(F)(F)O3 [Example 184, {4-[(2S,4S)-4-{[(7R)-2,2-difluoro-7-methyl-6,7-dihydro-2H-furo[2,3-f][1,3]benzodioxole-7-carbonyl]amino}-7-(trifluoromethoxy)-3,4-dihydro-2H-1-benzopyran-2-yl]piperidin-1-yl}acetic acid] | > 20000 | 12
5 | C[C@]1(C(=O)N[C@H]2C[C@@H](C3CCNCC3)Oc3cc(OC(F)(F)F)ccc32)COc2cc3c(cc21)OC(F)(F)O3 [Example 185, (7R)-2,2-difluoro-7-methyl-N-[(2S,4S)-2-(piperidin-4-yl)-7-(trifluoromethoxy)-3,4-dihydro-2H-1-benzopyran-4-yl]-6,7-dihydro-2H-furo[2,3-f][1,3]benzodioxole-7-carboxamide] | 3350 | 31
6 | CC(C)(C)OC(=O)CN1CCC([C@H]2C[C@@H](NC(=O)[C@@]3(C)COc4cc5c(cc43)OC(F)(F)O5)c3ccc(OC(F)(F)F)cc3O2)CC1 [Example 186, tert-butyl {4-[(2R,4R)-4-{[(7R)-2,2-difluoro-7-methyl-6,7-dihydro-2H-furo[2,3-f][1,3]benzodioxole-7-carbonyl]amino}-7-(trifluoromethoxy)-3,4-dihydro-2H-1-benzopyran-2-yl]piperidin-1-yl}acetate] | 670 | 189
7 | C[C@]1(C(=O)N[C@@H]2C[C@H](C3CCN(CC(=O)O)CC3)Oc3cc(OC(F)(F)F)ccc32)COc2cc3c(cc21)OC(F)(F)O3 [Example 187, {4-[(2R,4R)-4-{[(7R)-2,2-difluoro-7-methyl-6,7-dihydro-2H-furo[2,3-f][1,3]benzodioxole-7-carbonyl]amino}-7-(trifluoromethoxy)-3,4-dihydro-2H-1-benzopyran-2-yl]piperidin-1-yl}acetic acid] | 2540 | 129
8 | C[C@]1(C(=O)N[C@H]2C[C@@H](C3CCN(C[C@H](O)CO)CC3)Oc3cc(OC(F)(F)F)ccc32)COc2cc3c(cc21)OC(F)(F)O3 [Example 188, (7R)—N-[(2S,4S)-2-{1-[(2S)-2,3-dihydroxypropyl]piperidin-4-yl}-7-(trifluoromethoxy)-3,4-dihydro-2H-1-benzopyran-4-yl]-2,2-difluoro-7-methyl-6,7-dihydro-2H-furo[2,3-f][1,3]benzodioxole-7-carboxamide] | > 20000 | 20

Continued, values first:

Row | EC50 [nM] | Maximum % activity (%) | SMILES
9 | 2030 | 186 | C[C@]1(C(=O)N[C@@H]2C[C@H](C3CCN(C[C@H](O)CO)CC3)Oc3cc(OC(F)(F)F)ccc32)COc2cc3c(cc21)OC(F)(F)O3 [Example 189, (7R)—N-[(2R,4R)-2-{1-[(2S)-2,3-dihydroxypropyl]piperidin-4-yl}-7-(trifluoromethoxy)-3,4-dihydro-2H-1-benzopyran-4-yl]-2,2-difluoro-7-methyl-6,7-dihydro-2H-furo[2,3-f][1,3]benzodioxole-7-carboxamide]
10 | 90 | 115 | C=Cc1cnc([C@H]2C[C@@H](NC(=O)[C@@]3(C)COc4cc5c(cc43)OC(F)(F)O5)c3ccc(OC)cc3O2)cn1 [Example 190, (7R)—N-[(2R,4R)-2-(5-ethenylpyrazin-2-yl)-7-methoxy-3,4-dihydro-2H-1-benzopyran-4-yl]-2,2-difluoro-7-methyl-6,7-dihydro-2H-furo[2,3-f][1,3]benzodioxole-7-carboxamide]
11 | 180 | 118 | COc1ccc2c(c1)O[C@@H](c1cnc(Cl)cn1)C[C@H]2NC(=O)[C@@]1(C)COc2cc3c(cc21)OC(F)(F)O3 [Example 193, (7R)—N-[(2R,4R)-2-(5-chloropyrazin-2-yl)-7-methoxy-3,4-dihydro-2H-1-benzopyran-4-yl]-2,2-difluoro-7-methyl-6,7-dihydro-2H-furo[2,3-f][1,3]benzodioxole-7-carboxamide]
12 | 60 | 143 | CC(C)OC(=O)[C@H]1CC[C@H]([C@H]2C[C@@H](NC(=O)[C@@]3(C)COc4cc5c(cc43)OC(F)(F)O5)c3ccc(OC(F)(F)F)cc3O2)CC1 [Example 194, propan-2-yl trans-4-[(2R,4R)-4-{[(7R)-2,2-difluoro-7-methyl-6,7-dihydro-2H-furo[2,3-f][1,3]benzodioxole-7-carbonyl]amino}-7-(trifluoromethoxy)-3,4-dihydro-2H-1-benzopyran-2-yl]cyclohexane-1-carboxylate]
13 | 340 | 101 | COc1ccc2c(c1)O[C@@H](c1ccc(Cl)nn1)C[C@H]2NC(=O)[C@@]1(C)COc2cc3c(cc21)OC(F)(F)O3 [Example 195, (7R)—N-[(2R,4R)-2-(6-chloropyridazin-3-yl)-7-methoxy-3,4-dihydro-2H-1-benzopyran-4-yl]-2,2-difluoro-7-methyl-6,7-dihydro-2H-furo[2,3-f][1,3]benzodioxole-7-carboxamide]
14 | 400 | 105 | COc1ccc2c(c1)OC(c1ccc(=O)n(C[C@@H](O)CO)n1)C[C@H]2NC(=O)[C@@]1(C)COc2cc3c(cc21)OC(F)(F)O3 (stereo partly drawn) [Example 196, (7R)—N-[(4R)-2-{1-[(2R)-2,3-dihydroxypropyl]-6-oxo-1,6-dihydropyridazin-3-yl}-7-methoxy-3,4-dihydro-2H-1-benzopyran-4-yl]-2,2-difluoro-7-methyl-6,7-dihydro-2H-furo[2,3-f][1,3]benzodioxole-7-carboxamide]
15 | 1070 | 106 | CC(C)(C)OC(=O)N[C@H]1CC[C@H]([C@@H]2C[C@H](NC(=O)[C@@]3(C)COc4cc5c(cc43)OC(F)(F)O5)c3ccc(OC(F)F)cc3O2)CC1 [Example 198, tert-butyl {trans-4-[(2S,4S)-7-(difluoromethoxy)-4-{[(7R)-2,2-difluoro-7-methyl-6,7-dihydro-2H-furo[2,3-f][1,3]benzodioxole-7-carbonyl]amino}-3,4-dihydro-2H-1-benzopyran-2-yl]cyclohexyl}carbamate]
16 | 210 | 149 | CC(C)(C)OC(=O)N[C@H]1CC[C@H]([C@H]2C[C@@H](NC(=O)[C@@]3(C)COc4cc5c(cc43)OC(F)(F)O5)c3ccc(OC(F)F)cc3O2)CC1 [Example 199, tert-butyl {trans-4-[(2R,4R)-7-(difluoromethoxy)-4-{[(7R)-2,2-difluoro-7-methyl-6,7-dihydro-2H-furo[2,3-f][1,3]benzodioxole-7-carbonyl]amino}-3,4-dihydro-2H-1-benzopyran-2-yl]cyclohexyl}carbamate]
17 | 70 | 132 | COc1ccc2c(c1)O[C@H](c1ccc(=O)[nH]n1)C[C@H]2NC(=O)[C@@]1(C)COc2cc3c(cc21)OC(F)(F)O3 [Example 200, (7R)-2,2-difluoro-N-[(2S,4R)-7-methoxy-2-(6-oxo-1,6-dihydropyridazin-3-yl)-3,4-dihydro-2H-1-benzopyran-4-yl]-7-methyl-6,7-dihydro-2H-furo[2,3-f][1,3]benzodioxole-7-carboxamide]
18 | 1610 | 71 | C[C@]1(C(=O)N[C@H]2C[C@@H](C3(C(=O)O)CC3)Oc3cc(OC(F)(F)F)ccc32)COc2cc3c(cc21)OC(F)(F)O3 [Example 201, 1-[(2S,4S)-4-{[(7R)-2,2-difluoro-7-methyl-6,7-dihydro-2H-furo[2,3-f][1,3]benzodioxole-7-carbonyl]amino}-7-(trifluoromethoxy)-3,4-dihydro-2H-1-benzopyran-2-yl]cyclopropane-1-carboxylic acid]
19 | > 20000 | 8 | COc1ccc2c(c1)O[C@@H](c1nnn[nH]1)C[C@H]2NC(=O)[C@@]1(C)COc2cc3c(cc21)OC(F)(F)O3 [Example 202, (7R)-2,2-difluoro-N-[(2R,4R)-7-methoxy-2-(1H-tetrazol-5-yl)-3,4-dihydro-2H-1-benzopyran-4-yl]-7-methyl-6,7-dihydro-2H-furo[2,3-f][1,3]benzodioxole-7-carboxamide]
